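Cultured in 96-well plates, cells were exposed to test compound for 48 hours across five concentrations. GI50: concentration for 50% inhibition of growth.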 Calls of active or inactive are those of the source. Rule as the data show it: active = GI50 up to about 1.1 µM and inactive = higher.
Tests used:
Assay in all cases: growth of human tumour cells (NCI), 48 h
RXF 631 = system: RXF 631
HT-29 = system: HT-29
HL-60 = system: HL-60
HOP-18 = system: HOP-18
CCRF-CEM = system: CCRF-CEM
M14 = system: M14
OVCAR-5 = system: OVCAR-5
DMS-114 = system: DMS-114
A498 = system: A498
XF498 = system: XF498
SNB-78 = system: SNB-78
OVCAR-8 = system: OVCAR-8
SF-268 = system: SF-268
SK-MEL-5 = system: SK-MEL-5
LOX IMVI = system: LOX IMVI
NCI-H226 = system: NCI-H226
UACC-62 = system: UACC-62
LXFL 529 = system: LXFL 529
A549 = system: A549
HOP-92 = system: HOP-92
CAKI-1 = system: CAKI-1
SR = system: SR
UO-31 = system: UO-31
COLO 205 = system: COLO 205
K562 = system: K562
HCT-15 = system: HCT-15
RXF 393 = system: RXF 393
NCI-H460 = system: NCI-H460
U-251 = system: U-251
SN12C = system: SN12C
TK-10 = system: TK-10
DMS-273 = system: DMS-273
SF-295 = system: SF-295
M19-MEL = system: M19-MEL
MOLT-4 = system: MOLT-4
KM-20L2 = system: KM-20L2
UACC-257 = system: UACC-257
DLD-1 = system: DLD-1
RPMI-8226 = system: RPMI-8226
HOP-62 = system: HOP-62
NCI-H23 = system: NCI-H23
786-0 = system: 786-0
Malme-3M = system: Malme-3M
OVCAR-3 = system: OVCAR-3
SNB-75 = system: SNB-75
SNB-19 = system: SNB-19
SK-OV-3 = system: SK-OV-3
NCI-H522 = system: NCI-H522
SF-539 = system: SF-539
OVCAR-4 = system: OVCAR-4
EKVX = system: EKVX
HCT-116 = system: HCT-116
IGROV-1 = system: IGROV-1
HCC 2998 = system: HCC 2998
SW-620 = system: SW-620
ACHN = system: ACHN
KM12 = system: KM12
SK-MEL-2 = system: SK-MEL-2
SK-MEL-28 = system: SK-MEL-28

`COC(=O)C(=O)OC1(C(C)=O)CC2(c3ccccc3)OC1(c1ccccc1)c1ccccc12` (stereo not drawn) was tested, and the GI50 (RXF 631) was 23.1 µM (inactive), the GI50 (HT-29) was 17 µM (inactive) and the GI50 (HL-60) was 33.5 µM (inactive). For the same compound, the GI50 (HOP-18) was 52.8 µM (inactive), the GI50 (CCRF-CEM) was 33.6 µM (inactive) and the GI50 (M14) was 17.9 µM (inactive). For the same compound, the GI50 (OVCAR-5) was 26.1 µM (inactive), the GI50 (DMS-114) was 15.1 µM (inactive) and the GI50 (A498) was 18.6 µM (inactive). The GI50 (XF498) was 16.4 µM (inactive), the GI50 (SNB-78) was 27.8 µM (inactive) and the GI50 (OVCAR-8) was 15.9 µM (inactive). For the same compound, the GI50 (SF-268) was 20 µM (inactive), the GI50 (SK-MEL-5) was 15 µM (inactive) and the GI50 (LOX IMVI) was 15.7 µM (inactive). The GI50 (NCI-H226) was 17.3 µM (inactive), the GI50 (UACC-62) was 14.9 µM (inactive) and the GI50 (LXFL 529) was 19.8 µM (inactive). For the same compound, the GI50 (A549) was 14.8 µM (inactive), the GI50 (HOP-92) was 14 µM (inactive) and the GI50 (CAKI-1) was 17.9 µM (inactive). The GI50 (SR) was 28.1 µM (inactive), the GI50 (UO-31) was 14.2 µM (inactive) and the GI50 (COLO 205) was 15.8 µM (inactive). The GI50 (K562) was 27.7 µM (inactive), the GI50 (HCT-15) was 16.9 µM and the GI50 (RXF 393) was 15.4 µM (inactive). The GI50 (NCI-H460) was 18.4 µM (inactive), the GI50 (U-251) was 16.4 µM (inactive) and the GI50 (SN12C) was 15 µM (inactive). The GI50 (TK-10) was 29.4 µM (inactive), the GI50 (DMS-273) was 15.2 µM (inactive) and the GI50 (SF-295) was 14.5 µM (inactive). The GI50 (M19-MEL) was 16.9 µM (inactive), the GI50 (MOLT-4) was 22 µM (inactive) and the GI50 (KM-20L2) was 15.6 µM (inactive). The GI50 (UACC-257) was 16.2 µM (inactive), the GI50 (DLD-1) was 18.6 µM (inactive) and the GI50 (RPMI-8226) was 20.8 µM (inactive). The GI50 (HOP-62) was 18.4 µM (inactive), the GI50 (NCI-H23) was 17.2 µM (inactive) and the GI50 (786-0) was 13.5 µM (inactive). For the same compound, the GI50 (Malme-3M) was 19.1 µM (inactive), the GI50 (OVCAR-3) was 13.9 µM (inactive) and the GI50 (SNB-75) was 32.7 µM (inactive). For the same compound, the GI50 (SNB-19) was 19.9 µM (inactive), the GI50 (SK-OV-3) was 29.9 µM (inactive) and the GI50 (NCI-H522) was 17.7 µM (inactive). For the same compound, the GI50 (SF-539) was 13 µM (inactive), the GI50 (OVCAR-4) was 20.2 µM (inactive) and the GI50 (EKVX) was 20.7 µM (inactive). For the same compound, the GI50 (HCT-116) was 16.2 µM (inactive), the GI50 (IGROV-1) was 16.3 µM (inactive) and the GI50 (HCC 2998) was 16.7 µM (inactive). For the same compound, the GI50 (SW-620) was 16.4 µM (inactive).

For `COC(=O)C(C(=O)C(=O)NC1=C(Cl)C(=O)c2ccccc2C1=O)c1csc(-n2nc(-c3ccccc3)cc2-c2ccccc2)n1` (stereo not drawn), the GI50 (RXF 631) was > 100 µM (inactive), the GI50 (HT-29) was 20.7 µM (inactive) and the GI50 (HL-60) was > 100 µM (inactive). For the same compound, the GI50 (HOP-18) was 13.1 µM (inactive), the GI50 (CCRF-CEM) was 31 µM (inactive) and the GI50 (M14) was > 100 µM (inactive). For the same compound, the GI50 (OVCAR-5) was > 100 µM (inactive), the GI50 (DMS-114) was 10.2 µM (inactive) and the GI50 (A498) was > 100 µM (inactive). For the same compound, the GI50 (XF498) was > 100 µM (inactive), the GI50 (SNB-78) was > 100 µM (inactive) and the GI50 (OVCAR-8) was > 100 µM (inactive). The GI50 (SF-268) was 24.3 µM (inactive), the GI50 (LOX IMVI) was > 100 µM (inactive) and the GI50 (NCI-H226) was > 100 µM (inactive). For the same compound, the GI50 (UACC-62) was 44.1 µM (inactive), the GI50 (LXFL 529) was > 100 µM (inactive) and the GI50 (A549) was > 100 µM (inactive). The GI50 (HOP-92) was > 100 µM (inactive), the GI50 (ACHN) was > 100 µM (inactive) and the GI50 (CAKI-1) was > 100 µM (inactive). For the same compound, the GI50 (SR) was > 100 µM (inactive), the GI50 (KM12) was > 100 µM (inactive) and the GI50 (UO-31) was 6.08 µM (inactive). For the same compound, the GI50 (COLO 205) was > 100 µM (inactive), the GI50 (K562) was 20.9 µM (inactive) and the GI50 (HCT-15) was greater than 100 µM. The GI50 (RXF 393) was 34.7 µM (inactive), the GI50 (NCI-H460) was > 100 µM (inactive) and the GI50 (U-251) was > 100 µM (inactive). For the same compound, the GI50 (SN12C) was > 100 µM (inactive), the GI50 (TK-10) was > 100 µM (inactive) and the GI50 (DMS-273) was > 100 µM (inactive). For the same compound, the GI50 (SF-295) was > 100 µM (inactive), the GI50 (M19-MEL) was > 100 µM (inactive) and the GI50 (MOLT-4) was > 100 µM (inactive). For the same compound, the GI50 (KM-20L2) was > 100 µM (inactive), the GI50 (UACC-257) was > 100 µM (inactive) and the GI50 (DLD-1) was > 100 µM (inactive). For the same compound, the GI50 (RPMI-8226) was > 100 µM (inactive), the GI50 (HOP-62) was > 100 µM (inactive) and the GI50 (NCI-H23) was > 100 µM (inactive). The GI50 (786-0) was > 100 µM (inactive), the GI50 (Malme-3M) was 19.1 µM (inactive) and the GI50 (OVCAR-3) was > 100 µM (inactive). For the same compound, the GI50 (SNB-75) was 1.65 µM (inactive), the GI50 (SNB-19) was > 100 µM (inactive) and the GI50 (SK-OV-3) was > 100 µM (inactive). For the same compound, the GI50 (NCI-H522) was > 100 µM (inactive), the GI50 (OVCAR-4) was > 100 µM (inactive) and the GI50 (EKVX) was 9.66 µM (inactive). The GI50 (HCT-116) was > 100 µM (inactive), the GI50 (IGROV-1) was > 100 µM (inactive) and the GI50 (HCC 2998) was > 100 µM (inactive). For the same compound, the GI50 (SW-620) was > 100 µM (inactive).

In the case of `COC(=O)C(/C(=N/NC(N)=S)C(=O)Nc1ccccc1[N+](=O)[O-])c1cnc2ccccc2n1` (stereo not drawn), the GI50 (RXF 631) is reported as > 100 µM (inactive), the GI50 (HT-29) is reported as > 100 µM (inactive) and the GI50 (HL-60) is reported as > 100 µM (inactive). For the same compound, the GI50 (HOP-18) was > 100 µM (inactive), the GI50 (CCRF-CEM) was > 100 µM (inactive) and the GI50 (M14) was > 100 µM (inactive). For the same compound, the GI50 (SK-MEL-2) was > 100 µM (inactive), the GI50 (OVCAR-5) was > 100 µM (inactive) and the GI50 (DMS-114) was > 100 µM (inactive). The GI50 (A498) was > 100 µM (inactive), the GI50 (XF498) was > 100 µM (inactive) and the GI50 (SNB-78) was > 100 µM (inactive). The GI50 (OVCAR-8) was > 100 µM (inactive), the GI50 (SF-268) was > 100 µM (inactive) and the GI50 (SK-MEL-5) was > 100 µM (inactive). For the same compound, the GI50 (LOX IMVI) was > 100 µM (inactive), the GI50 (NCI-H226) was > 100 µM (inactive) and the GI50 (UACC-62) was > 100 µM (inactive). The GI50 (LXFL 529) was > 100 µM (inactive), the GI50 (A549) was > 100 µM (inactive) and the GI50 (HOP-92) was > 100 µM (inactive). For the same compound, the GI50 (ACHN) was > 100 µM (inactive), the GI50 (CAKI-1) was > 100 µM (inactive) and the GI50 (SR) was > 100 µM (inactive). For the same compound, the GI50 (KM12) was > 100 µM (inactive), the GI50 (UO-31) was > 100 µM (inactive) and the GI50 (COLO 205) was > 100 µM (inactive). For the same compound, the GI50 (K562) was > 100 µM (inactive), the GI50 (HCT-15) was greater than 100 µM and the GI50 (RXF 393) was > 100 µM (inactive). For the same compound, the GI50 (NCI-H460) was > 100 µM (inactive), the GI50 (U-251) was > 100 µM (inactive) and the GI50 (SN12C) was > 100 µM (inactive). For the same compound, the GI50 (TK-10) was > 100 µM (inactive), the GI50 (DMS-273) was > 100 µM (inactive) and the GI50 (SF-295) was > 100 µM (inactive). The GI50 (M19-MEL) was > 100 µM (inactive), the GI50 (MOLT-4) was 83 µM (inactive) and the GI50 (KM-20L2) was > 100 µM (inactive). The GI50 (UACC-257) was > 100 µM (inactive), the GI50 (DLD-1) was > 100 µM (inactive) and the GI50 (RPMI-8226) was > 100 µM (inactive). The GI50 (HOP-62) was > 100 µM (inactive), the GI50 (NCI-H23) was > 100 µM (inactive) and the GI50 (786-0) was > 100 µM (inactive). The GI50 (Malme-3M) was > 100 µM (inactive), the GI50 (SNB-75) was > 100 µM (inactive) and the GI50 (SK-MEL-28) was > 100 µM (inactive). For the same compound, the GI50 (SNB-19) was > 100 µM (inactive), the GI50 (SK-OV-3) was > 100 µM (inactive) and the GI50 (NCI-H522) was > 100 µM (inactive). For the same compound, the GI50 (SF-539) was > 100 µM (inactive), the GI50 (OVCAR-4) was > 100 µM (inactive) and the GI50 (EKVX) was > 100 µM (inactive). The GI50 (HCT-116) was > 100 µM (inactive), the GI50 (IGROV-1) was > 100 µM (inactive) and the GI50 (HCC 2998) was > 100 µM (inactive). For the same compound, the GI50 (SW-620) was > 100 µM (inactive).

From ChEMBL document CHEMBL1201862, “PubChem BioAssay data set” (2004)
